One compound from patent US20110152094A1, “Herbicidal compositions comprising flufenacet” (Bayer CropScience AG, priority 2009, published 2011) can be followed below.

Holding throughout (format): in vivo
One series deals with STEME = Stellaria media. Kind of series: Greenhouse trial, activity with different soil types (test method 7). The following applies: g of AS/ha: (A) 120, (B) 1200, (A)+(B) 120 + 1200. The method, then:
(§1) In the standard design of the test, seeds of various broad-leaved weed and weed grass biotypes (origins) were sown in a 8-13 cm diameter pot filled with natural soil of a standard field soil (loamy silt; non-sterile) and covered with a covering soil layer of about 1 cm. The pots were then cultivated in a greenhouse (12-16 h of light, temperature day 20-22° C., night 15-18° C.) until the time of application. The pots were treated on a laboratory track sprayer with spray liquors comprising the compositions according to the invention, mixtures of the prior art or components used individually. Application of the active compounds or active compound combinations formulated as WG, WP, EC or otherwise was carried out at the appropriate growth stages of the plants. The application rate for the spray application was 100-600 l of water/ha. After the treatment, the plants were returned to the greenhouses.
(§2) About 3 weeks after the application, the soil action or/and foliar action was assessed visually according to a scale of 0-100% in comparison to an untreated comparative group: 0%=no noticeable effect compared to the untreated comparative group; 100%=full effect compared to the untreated comparative group.
(§3) (notes: the term “seeds” also includes vegetative propagation forms such as, for example, rhizome pieces; abbreviations used: h light=hours of illumination, g of AS/ha=gram of active substance per hectare, l/ha=liter per hectare, S=sensitive, R=resistant) • 1. Pre-emergence action against weeds: seeds of various broad-leaved weed and weed grass biotypes (origins) were sown in a 8-13 cm diameter pot filled with natural soil of a standard field soil (loamy silt; non-sterile) and covered with a covering soil layer of about 1 cm. The pots were then cultivated in a greenhouse (12-16 h of light, temperature day 20-22° C., night 15-18° C.) until the time of application. The pots were treated at the BBCH stage 00-10 of the seeds/plants on a laboratory track sprayer with spray liquors comprising the compositions according to the invention, mixtures or components used individually, as WG, WP, EC or other formulations. The application rate for the spray application was 100-600 l of water/ha. After the treatment, the plants were returned to the greenhouses and, when required, treated with fertilizer and watered. • 2. Post-emergence action against weeds: seeds of various broad-leaved weed and weed grass biotypes (origins) were sown in a 8-13 cm diameter pot filled with natural soil of a standard field soil (loamy silt; non-sterile) and covered with a covering soil layer of about 1 cm. The pots were then cultivated in a greenhouse (12-16 h of light, temperature day 20-22° C., night 15-18° C.) until the time of application. The pots were treated at various BBCH stages between 11-25 of the seeds/plants, i.e. generally between two to three weeks after the start of the cultivation, on a laboratory track sprayer with spray liquors comprising the compositions according to the invention, mixtures or components used individually, as WG, WP, EC or other formulations. The application rate for the spray application was 100-600 l of water/ha. After the treatment, the plants were returned to the greenhouses and, when required, treated with fertilizer and watered. • 3. Selective pre-emergence action: seeds of various crop species (origins) were sown in a 8-13 cm diameter pot filled with natural soil of a standard field soil (loamy silt; non-sterile) and covered with a covering soil layer of about 1 cm. The pots were then cultivated in a greenhouse (12-16 h of light, temperature day 20-22° C., night 15-18° C.) until the time of application. The pots were treated at the BBCH stage 00-10 of the seeds/plants on a laboratory track sprayer with spray liquors comprising the compositions according to the invention, mixtures or components used individually, as WG, WP, EC or other formulations. The application rate for the spray application was 100-600 l of water/ha. […]

The subject of series [1] is TRZAS = Triticum aestivum, summer wheat. The series is described as above. The following applies: g of AS/ha: (A) 120, (B) 1200, (A)+(B) 120 + 1200. Here is the method: as §1, §2, §3
Series [2] deals with HORVW = Hordeum vulgare, winter barley. Kind of series: Greenhouse trial, selective pre-emergence (PE) action on crop plant (test method 3). The following applies: PE application, g of AS/ha: (A) 90, (B) 1200, (A)+(B) 90 + 1200. The method, then: as §1
(§4) About 3 weeks after the application, the soil action or/and foliar action was assessed visually according to a scale of 0-100% in comparison to an untreated comparative group: 0%=no noticeable effect compared to the untreated comparative group; 100%=full effect compared to the untreated comparative group. […]

The next series has as its system AVEFA = Avena fatua. The series can be described thus: Greenhouse trial, pre-sowing application 7 days prior to sowing (test method 5). The following applies: g of AS/ha: (A) 90, (B) 1200, (A)+(B) 90 + 1200. The method, then:
as §1, §2
(§5) (notes: the term “seeds” also includes vegetative propagation forms such as, for example, rhizome pieces; abbreviations used: h light=hours of illumination, g of AS/ha=gram of active substance per hectare, l/ha=liter per hectare, S=sensitive, R=resistant) • 1. Pre-emergence action against weeds: seeds of various broad-leaved weed and weed grass biotypes (origins) were sown in a 8-13 cm diameter pot filled with natural soil of a standard field soil (loamy silt; non-sterile) and covered with a covering soil layer of about 1 cm. The pots were then cultivated in a greenhouse (12-16 h of light, temperature day 20-22° C., night 15-18° C.) until the time of application. The pots were treated at the BBCH stage 00-10 of the seeds/plants on a laboratory track sprayer with spray liquors comprising the compositions according to the invention, mixtures or components used individually, as WG, WP, EC or other formulations. The application rate for the spray application was 100-600 l of water/ha. After the treatment, the plants were returned to the greenhouses and, when required, treated with fertilizer and watered. • 2. Post-emergence action against weeds: seeds of various broad-leaved weed and weed grass biotypes (origins) were sown in a 8-13 cm diameter pot filled with natural soil of a standard field soil (loamy silt; non-sterile) and covered with a covering soil layer of about 1 cm. The pots were then cultivated in a greenhouse (12-16 h of light, temperature day 20-22° C., night 15-18° C.) until the time of application. The pots were treated at various BBCH stages between 11-25 of the seeds/plants, i.e. generally between two to three weeks after the start of the cultivation, on a laboratory track sprayer with spray liquors comprising the compositions according to the invention, mixtures or components used individually, as WG, WP, EC or other formulations. The application rate for the spray application was 100-600 l of water/ha. After the treatment, the plants were returned to the greenhouses and, when required, treated with fertilizer and watered. • 3. […]

Series [3] deals with HORVW = Hordeum vulgare, winter barley. Described as above. The note with it: g of AS/ha: (A) 90, (B) 1200, (A)+(B) 90 + 1200. The method, then: as §1, §2, §5
Series [4] concerns MATCH = Matricaria chamomilla. Described as above. The following applies: g of AS/ha: (A) 90, (B) 1200, (A)+(B) 90 + 1200. The method, then:
as §1, §2, §5

Series [5] has as its system HORVS = Hordeum vulgare, summer barley. The series can be described thus: Greenhouse trial, selective post-emergence (PO) action on crop plant (test method 4). The note with it: PO application, g of AS/ha: (A) 120, (B) 1200, (A)+(B) 120 + 1200, about 3 weeks after application. Here is the method: as §1, §4

Take `CCC(CC)Nc1c([N+](=O)[O-])cc(C)c(C)c1[N+](=O)[O-]` [(B) pendimethalin, N-(1-ethylpropyl)-3,4-dimethyl-2,6-dinitrobenzenamine]: in the series on STEME = Stellaria media (IU soil (loamy silt, standard field soil)), the “activity STEME IU soil (visual assessment, scale 0-100% vs untreated)” value came to 85%. In the series with STEME = Stellaria media (IU/EC73 soil (heavier soil, higher organic substance)), the “activity STEME IU/EC73 soil (visual assessment, scale 0-100% vs untreated)” value is recorded as 55%. Also, the “Difference of the soil types Δ^D, STEME” value in the series with STEME = Stellaria media (IU/EC73 soil versus IU soil) is recorded as “Δ^D −30%”. In series [1] (IU soil), the “activity on crop plant TRZAS IU soil (visual assessment, scale 0-100% vs untreated)” value was 5%. Also, in series [1] (IU/EC73 soil versus IU soil, crop plant), the “Difference of the soil types Δ^D, TRZAS” value is “Δ^D −5%”. Besides, the “activity on crop plant TRZAS IU/EC73 soil (visual assessment, scale 0-100% vs untreated)” value in series [1] (IU/EC73 soil) was 0%. Further, the “activity on crop plant HORVW (visual assessment, scale 0-100% vs untreated)” value in series [2] was found to be 50%; in series [3], 40%. Besides, in the series with AVEFA = Avena fatua, the “activity AVEFA (visual assessment, scale 0-100% vs untreated)” value worked out at 70%. The “activity MATCH (visual assessment, scale 0-100% vs untreated)” value in series [4] came out at 0%. Besides, the “activity on crop plant HORVS (visual assessment, scale 0-100% vs untreated)” value in series [5] is listed as 10%.
